Measurements taken from PMC7504360 (International Journal of Molecular Sciences, 2020).
Square brackets hold non-standard residues; d marks the D form. Peptide text beside a SMILES is read from it.

What was measured:
[1] = test system: LPS-stimulated RAW264.7 cells; assay: Nitrite (NO) production, Griess assay; format: cell-based, mouse; conditions: 25 μM, 1 h pretreatment, LPS 20 ng/mL for 16 h
Experimental: (§1) The presence of nitrite in culture media strongly validates the indication of NO production which was assessed by Griess assay. Briefly, RAW264.7 cell (1 × 10^5) were seeded in s 96-well plate in triplicate. Peptides (1, 5, 25, and 50 μM) were pretreated 1 h and then stimulated with 20 ng/mL of LPS purified from E. coli O111:B4 (Sigma-Aldrich, St. Louis, MO, USA) for 16 h. After incubation, equal volumes of culture media and Griess reagent were added and color change was read at 540 nm. The concentration of nitrite content was assessed using a standard curve of sodium nitrite. In addition, release of inflammatory cytokines including TNF-α and IL-6 in the culture media was quantified using an enzyme-linked immunosorbent assays kit (ELISA; R&D Systems, Minneapolis, MN, USA) and the assay was performed according to the kit protocol. The assay was conducted in triplicate, and the concentrations of TNF-α and IL-6 were evaluated by measuring the absorbance at 450 nm using a microplate reader.

Calcein leakage assay = conditions: 4 µM peptide, 3 min after peptide exposure, EYPE/EYPG (7:3, w/w) LUVs, pH 7.4, fluorescence ex 490/em 520 nm; triplicate
Experimental: We investigated the modes of action of the peptides by measuring their abilities to permeate model phospholipid membranes and Escherichia coli. The membrane-permeabilizing ability of the peptides was measured by monitoring the release of fluorescent calcein from liposomes of various compositions. We employed negatively-charged large unilamellar vesicles (LUVs) composed of 7:3 (w/w) egg yolk L-α-phosphatidylethanolamine (EYPE)/egg yolk L-α-phosphatidylglycerol (EYPG) to mimic gram-negative bacterial cells. The percentage of calcein leakage 3 min after peptide exposure was used to assess its ability to permeate the membrane. […] All Pro-peptides induced significant dye release against the negatively charged EYPE/EYPG LUVs, implying that they potently permeate bacterial cell component membranes. […]
Calcein-entrapped LUVs composed of egg yolk phosphatidylethanolamine (EYPE)/egg yolk phosphatidylglycerol EYPG (7:3, w/w) were prepared by vortexing the dried lipid in dye buffer solution (70 mM calcein, 10 mM Tris, 150 mM NaCl, and 0.1 mM Ethylenediaminetetraacetic acid (EDTA), pH 7.4) as described previously. The leakage of calcein from the LUVs was monitored by measuring fluorescence intensity at an excitation wavelength of 490 nm and an emission wavelength of 520 nm on a model RF-5301PC spectrophotometer (Shimadzu, Kyoto, Japan). […]

MAPK and NF-κB = assay: Immunoblot of MAPK (JNK, ERK) phosphorylation and NF-κB nuclear translocation; format: cell-based, mouse; conditions: 20 μM peptide, LPS 50 ng/mL, RAW264.7 cells
Experimental: (§2) The protein content of all experimental groups of RAW264.7 cells in triplicate were extracted using radio immunoprecipitation buffer (RIPA) containing protease phosphatase inhibitor. The supernatant was collected by centrifugation (12,000× g) at 4 °C for 20 min and stored at −80 °C until further use. Similarly, cytoplasmic and nuclear fractionation was extracted using an NE-PER Nuclear and Cytoplasmic Extraction Reagents kit (ThermoFisher Scientific, MA, USA), according to the manufacturer’s protocol. Protein contents were quantified using a bicinchoninic acid (BCA) protein assay kit (Thermo Fisher Scientific Inc., MA, USA) and 30 μg (v/v) was electrophoresed by SDS-PAGE using a 10% (w/v) polyacrylamide resolving gel, electro-transferred to a PVDF membrane, and then blocked using 5% (w/v) non-fat milk. The membranes were incubated with primary antibodies (1:1000 dilution) at 4 °C overnight, followed by incubation with their respective secondary antibody for 1 h at room temperature. The antigen-antibody complexes were examined using the WestGlow^TM Chemiluminescent Substrate (Biomax Co., Ltd, Seoul, South Korea) under iBright™ CL1000 Imaging System (Thermo Fisher Scientific Inc., MA, USA). The densitometric analysis of protein signals were quantified using the Image J software (Version 1.52, National Institutes of Health, MD, USA).

TLR4 = assay: Immunoblot of TLR4 expression; format: cell-based, mouse; conditions: 20 μM peptide, LPS 50 ng/mL, RAW264.7 cells
Experimental: as §2

[2] = test system: LPS-stimulated RAW264.7 cells; assay: TNF-α release, ELISA; format: cell-based, mouse; conditions: 25 μM, 1 h pretreatment, LPS 20 ng/mL for 16 h
Experimental: as §1

ICR mice = assay: Cytotoxicity in vivo (serum AST, ALT, BUN); parameters: species or system mouse; conditions: single intraperitoneal dose 1 mg/kg and 5 mg/kg, 24 h, 5 mice/group
Experimental: A preliminary toxicity study was conducted to determine the cytotoxic effect of Pro10-1 and Pro10-1D on ICR mice. Four-week-old mice (n = 5) were injected intraperitoneally with peptides (1 mg/Kg and 5 mg/Kg, respectively) for 24 h. After treatment, blood was withdrawn and serum was collected and then subjected to AST, ALT, and BUN analyses.

[3] = test system: sheep red blood cells (sRBCs); assay: Hemolytic activity; format: cell-based; conditions: 100 μM peptide, 4% (v/v) sRBCs in PBS, 1 h at 37 °C, absorbance 405 nm; three measurements averaged
Experimental: The hemolytic activity of all Pro-peptides were tested against sheep red blood cells (sRBCs) as described in previous reports. Fresh sRBCs were washed three times with phosphate-buffered saline (PBS) followed by centrifugation for 5 min at 2500 rpm at 4 °C. Peptides (0.2 to 100 μM) in PBS were incubated with 4% (v/v) sRBCs for 1 h at 37 °C. The contents were then centrifuged for 5 min at 1000 × g. The absorbance of the supernatant at 405 nm was used as a measure of hemolysis, and three times independent measurements were averaged. As a control, 100% hemolysis was obtained by treating sRBCs with melittin.

[4] = test system: LPS-stimulated RAW264.7 cells; assay: IL-6 release, ELISA; format: cell-based, mouse; conditions: 25 μM, 1 h pretreatment, LPS 20 ng/mL for 16 h
Experimental: as §1

For `CC[C@@H](C)[C@@H](NC(=O)[C@@H](C)NC(=O)[C@@H](CC(C)C)NC(=O)[C@@H](Cc1c[nH]c2ccccc12)NC(=O)[C@@H](CC(C)C)NC(=O)[C@@H](CCCNC(=N)N)NC(=O)[C@H](N)CCCNC(=N)N)C(=O)N[C@H](Cc1c[nH]c2ccccc12)C(=O)N[C@H](CCCNC(=N)N)C(=O)N[C@H](CCCNC(=N)N)C(N)=O` [Pro10-1D] (H-[dR][dR][dL][dW][dL][dA][dI][dW][dR][dR]-NH2; N-terminus assumed), which “inhibition of LPS-induced NO (nitrite) level” value [1] is on record?
Its value is “effective inhibition”.

What about the calcein leakage (Calcein leakage assay) of the same molecule?
Its calcein leakage is “more than 80%”.

What about the “MAPK and NF-κB proteins” value (MAPK and NF-κB) of the same molecule?
The value was “downregulated”.

What about the “LPS-induced TLR4 expression” value (TLR4) of the same molecule?
Its value is “effectively suppressed”.

And the “inhibition of LPS-induced TNF-α level” value [2]?
Its value is “effective inhibition”.

And the “AST, ALT, and BUN elevation in serum” value (ICR mice)?
Its value is “did not observe any clinical significance”.

What about the hemolysis [3] of the same molecule?
Its hemolysis is “no hemolytic activity”.

And the “inhibition of LPS-induced IL-6 level” value [4]?
Its value is “effective inhibition”.
